How the values were obtained:
[1] = format: physicochemical
Description: (§1) Specifically, approximately 0.1 g zinc oxide/lactic acid was dissolved in 10 Ml of deionized water via vortexing. […] Specifically, approximately 0.1 g zinc oxide was mixed in 10 Ml sodium lactate solution (containing approximately 0.88 g sodium lactate in 10 Ml deionized water). The mixture was vortexed to dissolve the particles such that no large visible particles remained.

[2] = Description: To further test solubility of the zinc oxide/lactic acid complexes in a solution comprising lactic acid and water, increasing amounts of lactic acid were added to 0.725 g zinc oxide/lactic acid complexes. Specifically, the following amounts of 88% lactic acid were added to the zinc oxide/lactic acid complexes in 10 Ml deionized water: 0.0273 g, 0.0262 g, 0.0345 g, 0.0575 g, 0.0757 g, 0.1166 g, 0.1562 g, 0.1389 g, 0.1486 g, and 0.2810 g. Approximately 0.3 g zinc oxide/lactic acid complexes were also mixed with 0.0670 g or 0.2517 g 88% lactic acid.
[3] = Solubility / dissociation of the complexes in water; conditions: approximately 0.1 g in 10 Ml deionized water, after standing overnight
Description: Zinc oxide and lactic acid were mixed in an ethanol solution (reagent grade ethyl alcohol denatured with methanol and isopropyl alcohol) containing approximately 10% water at room temperature with continuous stirring using a magnetic stirrer. […] The crystals were isolated by filtering.
as §1

[4] = cited from earlier work

Row | SMILES | solubility in sodium lactate [1] | Ph of the mixture in sodium lactate solution ([1]; approximately 0.1 g in 10 Ml sodium lactate solution, overnight) | solubility in lactic acid and water (appearance of the mixture) [2] | Ph of the mixture in water [3] | solubility in neutral aqueous solutions [4]
1 | CC1[O][Zn]2([OH])([O]C1=O)[O]C(=O)C(C)[O]2 (centres unmarked) [zinc oxide/lactic acid complexes] | soluble in sodium lactate | approximately 6 | milky mixture that settles upon standing | approximately 6 | 
2 | [O]=[Zn] [Zinc oxide, zinc oxide] |  |  |  |  | nearly insoluble
